Measured values from patent publication US20230203023A1, “SALT AND CRYSTAL FORMS OF GLP-1R AGONISTS AND USES THEREOF” (QILU REGOR THERAPEUTICS INC., priority 2020, published 2023).
Counter-ions that a name gives are not always drawn.

Columns and labels:
[1] = Solution stability evaluation in SGF (pH 1.8) and pH 8.0 buffer at RT; format: physicochemical
Method: Weigh 100 mg of sodium chloride and 50 mg of Triton X-100 into a 50-mL volumetric flask. Add appropriate volume of purified water and sonicate until all solids are completely dissolved. Add about 68 μL of 12 M HCl and sufficient purified water closely to the target volume and adjust to pH 1.8. Dilute to volume with purified water, mix well and check the pH with a pH meter.
Add sufficient purified water closely to the target volume and adjust to pH 8.0. Dilute to volume with purified water, mix well and check the pH with a pH meter. […]
Solution stability was evaluated for 1:1 Compound II Citrate Salt (Form A) and 1:1 Compound II Tris Salt (Form B) in SGF (pH 1.8) and pH 8.0 buffer at RT. Clear solutions were prepared at two concentrations (0.01 mg/mL, 0.05 mg/mL) and then placed at RT for 6 hours, 1/5 days or 6 hours, 1/3/7 days. […] The HPLC purity and pH value were tested and the results were summarized from Table 7-3-1 to Table 7-3-4.

Hygroscopicity, DVS test = format: physicochemical; details: 25° C.
Method: DVS was measured via a SMS (Surface Measurement Systems) DVS Intrinsic. The relative humidity at 25° C. were calibrated against deliquescence point of LiCl, Mg(NO3)2 and KCl.
To investigate the solid form stability as a function of humidity, DVS isotherm plot of 1:1 Compound I Tris Salt (Form A) was collected between 0% RH and 95% RH at 25° C. […] Considering the 1:1 Compound I Tris Salt (Form A) is a hydrate and may dehydrate under low humidity, DVS was also tested at 20 and 30° C. to further confirm the suitable storage condition and avoid dehydration. […] Combing the VH-XRPD and DVS results: the condition of 20-30° C. and relative humidity ≥40% RH is suitable for the storage of 1:1 Compound I Tris Salt (Form A).
To investigate the solid form stability as a function of humidity, DVS isotherm plots of 1:1 Compound II Citrate Salt (Form A) and 1:1 Compound II Tris Salt (Form B) were collected at 25° C. between 0% RH and 95% RH. […] The water uptake increased by 0.97% from 10% to 80% RH and a platform was observed.

[2] = 0.01 mg/mL, pH 1.8 (SGF), Initial
[3] = 0.01 mg/mL, pH 1.8 (SGF), RT, 6 hours
[4] = 0.01 mg/mL, pH 8.0 (50 mM phosphate), Initial
[5] = 0.01 mg/mL, pH 8.0 (50 mM phosphate), RT, 6 hours
[6] = 0.05 mg/mL, pH 1.8 (SGF), Initial
[7] = 0.05 mg/mL, pH 1.8 (SGF), RT, 6 hours
[8] = 0.05 mg/mL, pH 8.0 (50 mM phosphate), Initial
[9] = 0.05 mg/mL, pH 8.0 (50 mM phosphate), RT, 6 hours
[10] = 1 day, 0.01 mg/mL, pH 1.8 (SGF), RT
[11] = 1 day, 0.01 mg/mL, pH 8.0 (50 mM phosphate), RT
[12] = 1 day, 0.05 mg/mL, pH 1.8 (SGF), RT
[13] = 1 day, 0.05 mg/mL, pH 8.0 (50 mM phosphate), RT
[14] = 5 days, 0.01 mg/mL, pH 1.8 (SGF), RT
[15] = 5 days, 0.01 mg/mL, pH 8.0 (50 mM phosphate), RT
[16] = 5 days, 0.05 mg/mL, pH 1.8 (SGF), RT
[17] = 5 days, 0.05 mg/mL, pH 8.0 (50 mM phosphate), RT

Structure (SMILES): N#Cc1ccc(COc2cccc(C3=CCN(Cc4nc5ccc(C(=O)O)cc5n4C[C@@H]4CCO4)CC3)n2)c(F)c1 [Citrate salt Form A, (S)-2-((6-((4-cyano-2-fluorobenzyl)oxy)-3′,6′-dihydro-[2,4′-bipyridin]-1′(2′H)-yl)methyl)-1-(oxetan-2-ylmethyl)-1H-benzo[d]imidazole-6-carboxylic acid]
- Purity (% area) [1, 2]: 100.00 % area
- pH [1, 2]: 1.8
- Purity (% area) [1, 3]: 100.00 % area
- Purity vs. Initial (%) [1, 3]: 100.0%
- pH [1, 3]: 1.8
- Purity (% area) [1, 4]: 98.67 % area
- pH [1, 4]: 8.0
- Purity (% area) [1, 5]: 97.89 % area
- Purity vs. Initial (%) [1, 5]: 99.2%
- pH [1, 5]: 8.0
- Purity (% area) [1, 6]: 97.84 % area
- pH [1, 6]: 1.8
- Purity (% area) [1, 7]: 97.54 % area
- Purity vs. Initial (%) [1, 7]: 99.7%
- pH [1, 7]: 1.8
- Purity (% area) [1, 8]: 98.22 % area
- pH [1, 8]: 8.0
- Purity (% area) [1, 9]: 98.03 % area
- Purity vs. Initial (%) [1, 9]: 99.8%
- pH [1, 9]: 8.0
- Purity (% area) [1, 10]: 98.51 % area
- Purity vs. Initial (%) [1, 10]: 98.5%
- pH [1, 10]: 1.8
- Purity (% area) [1, 11]: 97.36 % area
- Purity vs. Initial (%) [1, 11]: 98.7%
- pH [1, 11]: 8.0
- Purity (% area) [1, 12]: 96.61 % area
- Purity vs. Initial (%) [1, 12]: 98.7%
- pH [1, 12]: 1.8
- Purity (% area) [1, 13]: 97.95 % area
- Purity vs. Initial (%) [1, 13]: 99.7%
- pH [1, 13]: 8.0
- Purity (% area) [1, 14]: 94.05 % area
- Purity vs. Initial (%) [1, 14]: 94.1%
- pH [1, 14]: 1.9
- Purity (% area) [1, 15]: 97.14 % area
- Purity vs. Initial (%) [1, 15]: 98.5%
- pH [1, 15]: 7.9
- Purity (% area) [1, 16]: 92.31 % area
- Purity vs. Initial (%) [1, 16]: 96.1%
- pH [1, 16]: 1.8
- Purity (% area) [1, 17]: 97.75 % area
- Purity vs. Initial (%) [1, 17]: 99.5%
- pH [1, 17]: 8.0
- Form change after DVS test (Hygroscopicity, DVS test): No
- Water uptake (80% RH) (Hygroscopicity, DVS test): 0.71%
- Water uptake (80% RH) (Hygroscopicity, DVS test; listed as 1:1 Compound II Citrate Salt (Form A)): 0.71%
- Hygroscopicity (Hygroscopicity, DVS test; according to Chinese Pharmacopeia 2015): Slightly hygroscopic
